Test results from patent publication US20250313546A1, “NUCLEIC ACID BINDERS” (UNIVERSITY OF STRATHCLYDE, priority 2022, published 2025).
In brackets after ≈: the same amount, converted by molar mass.

Assays:
[1] = tested on: Candida glabrata (ACPF3309); conditions: for MIC99: Nakaseomyces glabratus, read-out: MIC99 Candida glabrata; for C. glabrata Selectivity Indices, Group: Alkyl Amidines and NH Pyrroles
[2] = tested on: Candida auris (H.17.157); conditions: for MIC99: Candidozyma auris, read-out: MIC99 Candida auris; for C. auris Selectivity Indices, Group: Alkyl Amidines and NH Pyrroles
Protocol: The Minimum Inhibitory Concentration (MIC, at 99% inhibition) of the compounds was determined using the broth microdilution method as recommended by EUCAST (EUCAST Definitive Document E.DEF 9.3.2, Method for the determination of broth dilution minimum inhibitory concentrations of antifungal agents for conidia forming moulds and EUCAST Definitive Document E.DEF 7.3.2 Method for the determination of broth dilution minimum inhibitory concentrations of antifungal agents for yeasts).

[3] = tested on: A. fumigatus A1160 (MFIG001); conditions: Aspergillus fumigatus, read-out: MIC99 A. fumigatus A1160
[4] = tested on: T. equiperdum; test: Resazurin-based (Alamar blue) drug sensitivity assay; conditions: Trypanosoma equiperdum, read-out: IC50 T. equiperdum
Protocol: (§2) A detailed description of the procedure for evaluating activity against trypanosomes, using an Alamar Blue (resazurin) assay, is described below.
(§3) The bloodstream form (BSF) T. b. brucei s427 (see De Koning, H. P. et al., Mol. Biochem. Parasitol. 2000, 106, 181-185), T. evansi AntTat 3/3 (see Dean, S. et al., Proc. Natl. Acad. Sci. USA, 2013, 110, 14741-14746), and T. equiperdum (see Stewart, M. L. et al., Eukaryot. Cell, 2010, 9, 336-343) were cultured in HMI-9 medium (Life Technologies, Paisley, United Kingdom) supplemented with 10% heat inactivated Foetal Bovine Serum (FBS (PAA Laboratories Linz, Austria)), 14 μL/L β-mercaptoethanol (BDH, Dorset, UK), and 3.0 g/L NaHCO3 (Sigma-Aldrich) and adjusted to pH 7.4. These cell lines were maintained at 37° C. in a humidified, 5% CO2 environment.
(§4) A resazurin-based (Alamar blue) drug sensitivity assay was used to assess and compare the activity of standard trypanocides in the different cell lines investigated (see Gould, M. K. et al., Anal. Biochem., 2008, 382, 87-93). Briefly, 23 doubling dilutions of the test compound of the invention, starting at 100 μM, and a compound-free control were prepared in 100 μL medium in a 96-well white plate (Greiner Bio-one, Frickenhausen, Germany). The cells were adjusted to 2×10^4 cells/mL for T. b. brucei and T. equiperdum; 4×10^4 cells/mL for T. evansi; and 5×10^5 cells/mL for T. congolense in the appropriate medium. 100 μL of the adjusted cells was then added to the wells containing drug dilutions and incubated for 48 h under respective culture condition. Thereafter, 20 μL of 125 mg/mL resazurin sodium dye was added, and the plate was incubated for a further 24 h.

[5] = tested on: Genomic double stranded DNA (salmon); test: Fluorescence intercalator displacement (FID) assay, SYBR-safe probe; conditions: 20 μM compound, 30° C., lower % = stronger binding
Procedure, shortened: (§1)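 Probe displacement was measured at 30 °C in 1 mM phosphate pH 7.4 containing SybrSafe (12500-fold dilution), 3.76 ng/mL nucleic acid (salmon dsDNA or polyAU dsRNA) and 20 μM compound. Fluorescence loss is normalised between probe-only and probe-plus-nucleic-acid controls.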

[6] = tested on: PolyAU double stranded RNA; test: as above; conditions: 20 μM compound, 30° C., lower % = stronger binding
Procedure, shortened: as §1

[7] = tested on: Enterococcus faecalis (ATCC 51299); test: Antibacterial MIC, broth microdilution (CLSI); format: cell-based; conditions: for MIC80: Enterococcus faecalis, ATCC51299, read-out: MIC80 E. faecalis; for E. faecalis Selectivity Indices, Group / E. faecalis Selectivity Index (SI): SI, IC50 (μM)/MIC80 (μM), HEK293 cytotoxicity; for E. faecalis Selectivity Index (SI): numeric value
[8] = tested on: Staphylococcus aureus (ATCC 43300); test: Antibacterial MIC, broth microdilution (CLSI); format: cell-based; conditions: for S. aureus Selectivity Indices, Group / S. aureus Selectivity Index (SI): SI, IC50 (μM)/MIC80 (μM), HEK293 cytotoxicity; for S. aureus Selectivity Index (SI): numeric value; for MIC80: Staphylococcus aureus, ATCC43300, read-out: MIC80 S. aureus
[9] = tested on: Rhizopus arrhizus (NEQAS12.35321); conditions: read-out: MIC99 Rhizopus arrhizus
[10] = tested on: T. evansi AntTat 3/3; test: Resazurin-based (Alamar blue) drug sensitivity assay; conditions: read-out: IC50 T. evansi
Protocol: as §2, §3, §4

[11] = tested on: Escherichia coli (ATCC 25922); test: Antibacterial MIC, broth microdilution (CLSI); format: cell-based; conditions: Escherichia coli, ATCC25922; read-out: MIC80 E. coli
[12] = tested on: C. neoformans (F10025); conditions: Cryptococcus neoformans, read-out: MIC99 C. neoformans
[13] = tested on: T. vaginalis; test: Trichomonas resorufin assay; format: cell-based; conditions: for T. vaginalis Selectivity Indices, Group: SI, IC50 (μM)/IC50 (μM), HEK293 cytotoxicity
[14] = tested on: SARS-CoV-2 (hCoV-19/Australia/VIC01/2020); test: SARS-CoV-2 microplaque inhibition assay in Vero-E6 cells; format: cell-based; conditions: SI, IC50 (μM)/IC50 (μM); HEK293 cytotoxicity; Alkyl Amidines and NH Pyrroles
[15] = SI, IC50 (μM)/MIC99 (μg/mL), HEK293 cytotoxicity
[16] = SI, IC50 (μM)/MIC99 (μg/mL), HEK293 cytotoxicity, numeric value

Structure (SMILES)	MIC99 [1] [µg/mL]	MIC99 [3] [µg/mL]	IC50 [4] [nM]	% Normalised Fluorescence with gDNA [5] [%]	% Normalised Fluorescence with polyAU RNA [6] [%]	MIC80 [7] [µM]	MIC80 [8] [µM]	IC50 [10] [nM]	MIC80 [11] [µM]	MIC99 [12] [µg/mL]	also measured
Cn1cc(NC(=O)c2ccc(/C=C/c3cnc4ccccc4c3)cc2)cc1C(=O)Nc1c[nH]c(C(=O)NCCC(=N)N)c1 [IIIa2, (E)-N-(5-((3-amino-3-iminopropyl)carbamoyl)-1H-pyrrol-3-yl)-1-methyl-4-(4-(2-(quinolin-3-yl)vinyl)benzamido)-1H-pyrrole-2-carboxamide]	< 5	5 to 25 (≈ 8.7 to 43.5 µM)	10 to 100	17	21	> 100	< 5	10 to 100	> 100	< 5	C. glabrata Selectivity Indices, Group [1, 15]: C (Group C 20 < SI <= 50); C. glabrata Selectivity Index (SI) [1, 16]: 47; MIC99 [2]: 5 to 25 µg/mL (≈ 8.7 to 43.5 µM); C. auris Selectivity Indices, Group [2, 15]: C (Group C 1 < SI <= 3); C. auris Selectivity Index (SI) [2, 16]: 3; S. aureus Selectivity Indices, Group ([8]; Alkyl Amidines and NH Pyrroles): D (D: SI > 10); S. aureus Selectivity Index (SI) [8]: 11; MIC99 [9]: 25 to 50 µg/mL (≈ 43.5 to 87 µM)
Cn1cc(NC(=O)c2ccc(/C=C/c3ccc4nonc4c3)cc2)cc1C(=O)Nc1c[nH]c(C(=O)NCCN2CCOCC2)c1 [IIIb1, (E)-4-(4-(2-(benzo[c][1,2,5]oxadiazol-5-yl)vinyl)benzamido)-1-methyl-N-(5-((2-morpholinoethyl)carbamoyl)-1H-pyrrol-3-yl)-1H-pyrrole-2-carboxamide]			10 to 100	47	30	> 100	5 to 25 (≈ 3.04 to 15.2 µg/mL)	10 to 100	> 100		
Cn1cc(NC(=O)c2ccc(/C=C/c3cnc4ccccc4c3)cc2)cc1C(=O)Nc1c[nH]c(C(=O)NCCN2CCOCC2)c1 [IIIb4, (E)-1-methyl-N-(5-((2-morpholinoethyl)carbamoyl)-1H-pyrrol-3-yl)-4-(4-(2-(quinolin-3-yl)vinyl)benzamido)-1H-pyrrole-2-carboxamide]	> 50	> 50	10 to 100	37	86	> 100	< 5	10 to 100	> 100	> 50	
O=C(Nc1c[nH]c(C(=O)Nc2c[nH]c(C(=O)NCCN3CCOCC3)c2)c1)c1ccc(/C=C/c2cnc3ccccc3c2)cc1 [IIIb5, (E)-N-(2-morpholinoethyl)-4-(4-(4-(2-(quinolin-3-yl)vinyl)benzamido)-1H-pyrrole-2-carboxamido)-1H-pyrrole-2-carboxamide]	> 50	> 50	10 to 100	49	59	> 100	< 5	10 to 100	> 100	> 50	
O=C(Nc1c[nH]c(C(=O)Nc2c[nH]c(C(=O)NCCN3CCOCC3)c2)c1)c1ccc(/C=C/c2ccc3nonc3c2)cc1 [IIIb6, (E)-4-(4-(2-(benzo[c][1,2,5]oxadiazol-5-yl)vinyl)benzamido)-N-(5-((2-morpholinoethyl)carbamoyl)-1H-pyrrol-3-yl)-1H-pyrrole-2-carboxamide]			10 to 100	84	53	> 100	25 to 100 (≈ 14.9 to 59.5 µg/mL)	100 to 1000	> 100		
Cn1cc(NC(=O)c2cc(NC(=O)c3ccc(/C=C/c4ccc5nonc5c4)cc3)c[nH]2)cc1C(=O)NCCN1CCOCC1 [IIIb9, (E)-4-(4-(4-(2-(benzo[c][1,2,5]oxadiazol-5-yl)vinyl)benzamido)-1H-pyrrole-2-carboxamido)-1-methyl-N-(2-morpholinoethyl)-1H-pyrrole-2-carboxamide]			10 to 100	55	30	5 to 25 (≈ 3.04 to 15.2 µg/mL)	5 to 25 (≈ 3.04 to 15.2 µg/mL)	100 to 1000	> 100		
Cn1cc(NC(=O)c2cc(NC(=O)c3ccc(/C=C/c4cnc5ccccc5c4)cc3)cn2C)cc1C(N)=O [IVa1, (E)-N-(5-carbamoyl-1-methyl-1H-pyrrol-3-yl)-1-methyl-4-(4-(2-(quinolin-3-yl)vinyl)benzamido)-1H-pyrrole-2-carboxamide]			100 to 1000	41	65	< 5	< 5	100 to 1000	> 100		E. faecalis Selectivity Indices, Group ([7]; Amides): C (Group: C, 1.5 < SI <= 5); E. faecalis Selectivity Index (SI) [7]: 3; S. aureus Selectivity Indices, Group ([8]; Amides): B (Group B: 1.4 < SI <= 3)
CNC(=O)c1cc(NC(=O)c2cc(NC(=O)c3ccc(/C=C/c4cnc5ccccc5c4)cc3)cn2C)cn1C [IVa2, (E)-N,1-dimethyl-4-(1-methyl-4-(4-(2-(quinolin-3-yl)vinyl)benzamido)-1H-pyrrole-2-carboxamido)-1H-pyrrole-2-carboxamide]			100 to 1000	29	73	< 5	< 5	100 to 1000	> 100		E. faecalis Selectivity Indices, Group ([7]; Amides): D (Group D: SI > 5); E. faecalis Selectivity Index (SI) [7]: 10; S. aureus Selectivity Indices, Group ([8]; Amides): C (Group C: SI > 3); S. aureus Selectivity Index (SI) [8]: 4
Cn1cc(NC(=O)c2cc(NC(=O)c3ccc(/C=C/c4cnc5ccccc5c4)cc3)cn2C)cc1C(=O)NCCC1CCCCC1 [IVa3, (E)-N-(2-cyclohexylethyl)-1-methyl-4-(1-methyl-4-(4-(2-(quinolin-3-yl)vinyl)benzamido)-1H-pyrrole-2-carboxamido)-1H-pyrrole-2-carboxamide]			100 to 1000			> 100	25 to 100 (≈ 15.7 to 62.9 µg/mL)	100 to 1000	> 100		
CCCCCCCCCC[N+](C)(C)CCNC(=O)c1cc(NC(=O)c2cc(NC(=O)c3ccc(/C=C/c4cnc5ccccc5c4)cc3)cn2C)cn1C [Ic9, (E)-N,N-dimethyl-N-(2-(1-methyl-4-(1-methyl-4-(4-(2-(quinolin-3-yl)vinyl)benzamido)-1H-pyrrole-2-carboxamido)-1H-pyrrole-2-carboxamido)ethyl)decan-1-aminium]	> 50	> 50	100 to 1000			5 to 25	< 5	10 to 100	> 100	5 to 25	MIC99 [2]: > 50 µg/mL; E. faecalis Selectivity Indices, Group ([7]; Quaternary ammoniums): B (Group B: 0.7 < SI <= 2); S. aureus Selectivity Indices, Group ([8]; Quaternary ammoniums): B (Group B: 2 < SI <= 5); IC50 ([13]; Trichomonas vaginalis, read-out: IC50 T. vaginalis): 5000 to 50000 nM; MIC99 [9]: > 50 µg/mL
Cn1cc(NC(=O)c2cc(NC(=O)c3ccc(/C=C/c4cnc5ccccc5c4)cc3)cn2C)cc1C(=O)NCCN1CCOCC1 [Ref-3, (E)-1-methyl-4-(1-methyl-4-(4-(2-(quinolin-3-yl)vinyl)benzamido)-1H-pyrrole-2-carboxamido)-N-(2-morpholinoethyl)-1H-pyrrole-2-carboxamide, reference compound]											C. glabrata Selectivity Indices, Group [1, 15]: A (Group A: SI < 12); C. auris Selectivity Indices, Group [2, 15]: A (Group A: SI < 0.4); E. faecalis Selectivity Indices, Group ([7]; Alkyl Amidines and NH Pyrroles): A (Group A: SI < 3); E. faecalis Selectivity Indices, Group ([7]; Amides): A (Group A: SI < 0.4); S. aureus Selectivity Indices, Group ([8]; Alkyl Amidines and NH Pyrroles): A (Group A: SI < 3); S. aureus Selectivity Indices, Group ([8]; Amides): A (Group A: SI < 1.4); SARS-CoV-2 Selectivity Indices, Group [14]: A (Group A: SI < 4.1); T. vaginalis Selectivity Indices, Group ([13]; Alkyl Amidines and NH Pyrroles): A (Group A: SI < 8); T. vaginalis Selectivity Indices, Group ([13]; Amides): A (Group A: SI < 0.25)
